The record followed here is patent US6916820B1, “Neurotrophic substituted pyrimidines” (Krenitsky Pharmaceuticals, Inc., priority 1999, dated 2005).

The subject of data set [1] is choline acetyltransferase (ChAT) activity in PC12 cells. In words: Choline acetyltransferase (ChAT) assay in NGF-treated PC12 cells (screen for NGF-like activity). It counts as cell-based, rat. The note with it: 3 days incubation with test compound, compared with NGF alone. As for the experimental part:
Cultured PC12 cells (rat adrenal pheochromocytoma from ATCC) have receptors for NGF. Responses include promotion of neurite outgrowth and elevation of choline acetyltransferase (ChAT) (L. A. Green and A. S. Tischler, Cell Neurobiol., 3, 373 (1982)).
The following assay is modified from that described in H L White and P W Scates, Neurochem. Res., 16, 63 (1991). PC12 cells were cultured at 37° C. in RPMI supplemented with HEPES buffer, pH 7.5 (to 10 mM), fetal bovine serum, horse serum, glutamine, penicillin, streptomycin and non-essential amino acids. Cultures were split 1:3 every 3 to 4 days. Exponentially dividing cells were plated into fresh medium on collagen-coated 12-well plastic dishes (10^5 cells/well). After allowing one day for cell attachment, the medium was replaced with low serum medium, with or without test compounds with each condition in triplicate. The medium may contain up to 0.2% ethanol, which was used as a solvent for most compounds tested. Cells were examined for morphological changes using an Olympus IMT-2 inverted research microscope. After 3 days incubation with test compounds, medium was removed and replaced with 0.2 ml of lysis and ChAT assay mixture. The plates were incubated at 37° C. for 2 hours and then placed into a freezer at −20° C. […]
The assay mixture contained 100 mM phosphate, pH 7.4, 0.1% NP-40, 150 mM NaCl, 1.5 mM choline, 10 mM EDTA, 0.1 mM eserine, 0.1 mM acetyl-coenzyme A and about 0.5 uCi (40-70 Ci/mol) [14C]acetyl-coenzyme A in each ml of mixture. […] The vials were centrifuged at 3000 rpm (max.=16 cm) for 15 minutes and then counted in a Beckman LS6500 scintillation counter. […]
The following data were obtained for representative compounds of the present invention which (1) increased the activity of choline acetyltransferase ChAT), (2) enhanced NGF-stimulated neurite outgrowth and/or (3) potentiated or appeared additive with the action of NGF itself. The concentration at which the test compound doubled the ChAT activity over the activity with NGF alone (no test compound) was recorded as the EC2x value: […]

Molecules are shown by their SMILES.

A word on the melting point: it is the temperature, or range, at which the solid turns liquid.

Turning to `Cl.Nc1ncc(Oc2ccc(Cl)cc2)c(N[C@H]2CC[C@H](O)CC2)n1`, the melting point lay in the range of 155 to 156 °C.

Molecule `Nc1ncc(Oc2ccc(Cl)cc2)c(N[C@H]2CC[C@H](O)CC2)n1` [Example 3, 2-amino-5-(4-chlorophenoxy)-4-(trans-4-hydroxycyclohexylamino)pyrimidine] registered a melting point of 154 to 155 °C. In addition, in data set [1], the “EC2x (concentration at which the test compound doubled the ChAT activity over the activity with NGF alone)” value was determined as 0.4 µM.

The molecule `Cl.Nc1ncc(Oc2ccc(Cl)cc2Cl)c(N[C@H]2CC[C@H](O)CC2)n1` [Example 5, 2-amino-5-(2,4-dichlorophenoxy)-4-(trans-4-hydroxycyclohexylamino)pyrimidine hydrochloride] showed a melting point of 138 to 145 °C. In addition, the “EC2x (concentration at which the test compound doubled the ChAT activity over the activity with NGF alone)” value in data set [1] came out at 1.2 µM.

Turning to `Cl.Nc1ncc(Oc2ccc(Cl)cc2)c(NC2CCC(=O)CC2)n1` [Example 10, 2-amino-5-(4-chlorophenoxy)-4-(4-oxocyclohexylamino)pyrimidine hydrochloride], in data set [1], the “EC2x (concentration at which the test compound doubled the ChAT activity over the activity with NGF alone)” value amounted to 0.7 µM.
